Data from the Biogen ADME set (Fang et al. 2023).
Values after ≈ are worked out from the molar mass of the structure shown.

Settings: for aqueous solubility: pH 6.8

Row | Structure (SMILES) | MDR1-MDCK efflux ratio | intrinsic clearance, human liver microsomes | intrinsic clearance, rat liver microsomes | aqueous solubility | fraction unbound, human plasma | fraction unbound, rat plasma
1 | CC(=O)N1CCN(C(=O)CCc2ccc(-c3ccccc3)[nH]2)CC1 | 8.83 | ≤ 4.74 mL/min/kg | 59.6 mL/min/kg | 61.8 µg/mL (≈ 190 µM) |  | 
2 | Cn1cc(-c2ccnc(/C=C/c3ccc(F)cc3Br)n2)cn1 | 0.658 |  |  | 0.68 µg/mL (≈ 1.89 µM) |  | 
3 | O=C(c1ccc(Cl)cc1)N1CCC[C@@H](C(=O)N2CCc3ccccc3C2)C1 | 2.44 | 360 mL/min/kg | 2530 mL/min/kg |  |  | 
4 | CCc1cc(N2CCOCC2)nc(C2CCN(C(=O)C3CC3)CC2)n1 | 4.76 | 11.6 mL/min/kg | 278 mL/min/kg |  |  | 
5 | O=C(Nc1ccc(S(=O)(=O)Nc2ccnn2-c2ccccc2)cc1)c1ccco1 | 48.8 | 8.1 mL/min/kg | 102 mL/min/kg | 63.4 µg/mL (≈ 155 µM) |  | 
6 | COCCN1CCOc2nc3c(C)cccc3cc2C1 | 0.564 | 14.7 mL/min/kg | 882 mL/min/kg |  |  | 
7 | O=C([C@H]1CCCN(Cc2ccc(F)cc2)C1)N1CCc2ccccc2C1 | 0.792 | 336 mL/min/kg | 3660 mL/min/kg | 50 µg/mL (≈ 142 µM) |  | 
8 | COc1ccc2c(c1)CC[C@@H]1[C@@H]2CC[C@]2(C)[C@@H](NCCCCCCN3C(=O)C=CC3=O)CC[C@@H]12 |  | 6.09 mL/min/kg | 38.7 mL/min/kg |  |  | 
9 | CC(=O)c1ccc2c(c1)CCN(CC1CCC3(CC1)OCCO3)CC2 | 0.556 | ≤ 4.74 mL/min/kg | 229 mL/min/kg |  |  | 
10 | O=C(Cc1ccc2c(c1)OCCO2)NC1CCCCCC1 | 0.619 | 194 mL/min/kg | 927 mL/min/kg | 42.1 µg/mL (≈ 146 µM) |  | 
11 | Cc1ncc(-c2ccccn2)c(CCNC(=O)C2CCCC2)n1 | 7.73 | 7.32 mL/min/kg | 90.7 mL/min/kg |  |  | 
12 | N#CC1(NC(=O)Cc2cc3c(ccc4ccccc43)o2)CCOCC1 |  | 87.3 mL/min/kg | 705 mL/min/kg |  |  | 
13 | N#Cc1cc(CN2CCC(Nc3ncnc4sc(Cl)cc34)CC2)ccc1F | 9.4 | 123 mL/min/kg | 1680 mL/min/kg |  |  | 
14 | c1ccc2nc(N3CCCC4(CCNCC4)CC3)cnc2c1 | 33.3 | ≤ 4.74 mL/min/kg | 495 mL/min/kg |  |  | 
15 | O=C(NC1(c2ccccc2)CCC1)c1cc(C2CC2)on1 | 0.543 | 8.16 mL/min/kg | 192 mL/min/kg | 8.8 µg/mL (≈ 31.2 µM) |  | 
16 | CCCCC1=NC2(CCCC2)C(=O)N1Cc1ccc(-c2ccccc2-c2nn[nH]n2)cc1 | 148 | 10.7 mL/min/kg | 151 mL/min/kg | 37 µg/mL (≈ 86.3 µM) |  | 
17 | COc1ccc(OC)c(Cn2cnc3cn(C)nc3c2=O)c1 | 2.56 | ≤ 4.74 mL/min/kg | 50.8 mL/min/kg |  |  | 
18 | CCN1CCC(N(C)c2ncnc3c2cnn3C)CC1 | 1.01 | 152 mL/min/kg | 37 mL/min/kg | 41.2 µg/mL (≈ 150 µM) |  | 
19 | COc1cccc(F)c1NC(=O)N1CCC(N2CC=CC2)CC1 | 8.24 | ≤ 4.74 mL/min/kg | 363 mL/min/kg |  |  | 
20 | CN(C)C(=O)CCNc1ccnc2ccc(Cl)cc12 |  | 6.56 mL/min/kg | 73.1 mL/min/kg |  |  | 
21 | Cc1ccc(N/N=C2\C(=O)N(C)N=C2Nc2ccccc2Cl)cc1 |  |  |  | 0.5 µg/mL (≈ 1.46 µM) |  | 
22 | COc1ccc(CCCN2CCN(c3cnn(C)c3)C(=O)C2)cc1F | 0.734 | ≤ 4.74 mL/min/kg | 44.1 mL/min/kg |  | 0.221 | 0.203
23 | CCCN1CCCN(C(=O)c2nc3ccccc3[nH]2)CC1 |  | 19.2 mL/min/kg | 169 mL/min/kg | 49.4 µg/mL (≈ 172 µM) |  | 
24 | CNc1nc(C)cc(C(=O)Nc2ccc3[nH]ncc3c2)n1 | 0.659 | 21.3 mL/min/kg |  |  | 0.312 | 
25 | CC(C)C(=O)Nc1ccc2cnn(C(C)C)c2c1 | 1.42 | 14 mL/min/kg | 55.8 mL/min/kg | 23 µg/mL (≈ 93.7 µM) |  | 
26 | CCc1c(C)nn(CCNC(=O)CCc2cnccn2)c1C | 23.4 | 64.5 mL/min/kg | 647 mL/min/kg |  |  | 

Next, values leading:

Row | MDR1-MDCK efflux ratio | intrinsic clearance, human liver microsomes | intrinsic clearance, rat liver microsomes | aqueous solubility | fraction unbound, human plasma | fraction unbound, rat plasma | Structure (SMILES)
27 | 0.637 |  |  | 0.19 µg/mL (≈ 0.536 µM) |  |  | COc1cccc(NC(=O)c2c([O-])n(-c3cccc(OC)c3)n[n+]2C)c1
28 | 1.82 | 273 mL/min/kg | 2040 mL/min/kg |  |  |  | CC(C)Cc1nn(C)c(=O)c2c(SCCCO)n(Cc3cccc4ccccc34)cc12
29 | 2.3 | ≤ 4.74 mL/min/kg | 490 mL/min/kg | 34.2 µg/mL (≈ 138 µM) |  |  | CC1CCN(CCNC(=O)c2ccncc2)CC1
30 | 0.688 | 65.1 mL/min/kg | 1250 mL/min/kg | 20.9 µg/mL (≈ 71.5 µM) |  |  | CCc1nc(CN2C(=O)COc3ccc(F)cc32)cs1
31 |  |  |  | 20.2 µg/mL (≈ 101 µM) |  |  | Cc1nn(-c2ccccc2)c(C)c1CN
32 | 1.33 | ≤ 4.74 mL/min/kg |  |  | 0.58 |  | NC1CCCC(C(=O)Nc2cccc(N3CCNC3=O)c2)C1 (stereo unspecified)
33 |  |  |  | 104 µg/mL (≈ 506 µM) |  |  | NCC(=O)Nc1ccc2[nH]c(=O)[nH]c2c1
34 |  | 267 mL/min/kg | 512 mL/min/kg |  |  |  | O=[N+]([O-])c1ccc(S(=O)(=O)Nc2cccc(-c3nc4ccccc4s3)c2)cc1
35 |  | 7.6 mL/min/kg | 17 mL/min/kg |  |  |  | CCCCCCCCc1ccc(CCC(N)(CO)CO)cc1
36 |  | 5.04 mL/min/kg | 42.8 mL/min/kg |  |  |  | CC(=O)N(CC(N)=O)c1ccc(C)cc1
37 |  | 209 mL/min/kg | 196 mL/min/kg |  |  |  | CCc1noc(-c2ccc(C)c(N)c2)n1
38 |  | 8.74 mL/min/kg | 61.6 mL/min/kg | 25.7 µg/mL (≈ 65.8 µM) |  |  | Cc1ccc(F)cc1C(=O)N1CCc2c(nc(-c3ccccn3)nc2N(C)C)C1
39 | 4.62 | 110 mL/min/kg | 160 mL/min/kg |  |  |  | CC(C)(C)OC(=O)NCCCC(=O)N[C@H]1C[C@@H](n2cnc3c(NCc4ccccc4)ncnc32)[C@@H](O)[C@H]1O
40 | 0.622 | 66 mL/min/kg | 316 mL/min/kg |  |  |  | CC(=O)c1cc(Br)cc(F)c1OCc1ccccn1
41 |  | 61.8 mL/min/kg | 122 mL/min/kg | 4 µg/mL (≈ 16.6 µM) |  |  | Cc1ccc2cc(C(=O)N(C)CCC#N)[nH]c2c1
42 | 0.463 | 199 mL/min/kg | 713 mL/min/kg |  |  |  | COC(=O)C1=NOC2(CCN(CCCCCF)CC2)C1
43 |  | ≤ 4.74 mL/min/kg | ≤ 10.7 mL/min/kg |  |  |  | O=C(CN1CCCC1=O)N1CCc2nc3sccc3c(=O)n2CC1
44 | 0.46 | 102 mL/min/kg | 3010 mL/min/kg |  |  |  | COc1ccc(C(=O)c2ccc(C)cc2)c(OC)c1

Row | MDR1-MDCK efflux ratio | intrinsic clearance, human liver microsomes | intrinsic clearance, rat liver microsomes | aqueous solubility | fraction unbound, human plasma | fraction unbound, rat plasma | Structure (SMILES)
45 | 0.729 |  |  | 0.66 µg/mL (≈ 1.92 µM) |  |  | O=C(Nc1nncs1)c1ccc(N2CCC3(CCCCC3)C2)nc1
46 | 0.886 | 11.8 mL/min/kg | 860 mL/min/kg |  |  |  | CNC(=O)c1ccc(N2CCCc3cc(OC)ccc3C2)nn1
47 | 4.8 | 12.7 mL/min/kg | 171 mL/min/kg | 1.1 µg/mL (≈ 2.43 µM) |  |  | CN(C)CCOc1ccc(-c2nc(-c3ccncc3)c(-c3ccc4c(c3)CC/C4=N\O)[nH]2)cc1
48 | 82.7 | ≤ 4.74 mL/min/kg | 45.1 mL/min/kg | 23.6 µg/mL (≈ 79.8 µM) |  |  | O=C(NCCc1nnc2n1CCC2)c1ccc2c(c1)CCC2
49 | 99.5 |  |  |  |  |  | COc1cc([C@H](CC(=O)O)c2ccc(C)c(CN3C[C@@H](C)Oc4ccccc4S3(=O)=O)c2)cc2nnn(C)c12
50 | 0.663 | ≤ 4.74 mL/min/kg | 69.7 mL/min/kg |  |  |  | CC1(C)CCCN1C(=O)c1c(F)cc(C#N)cc1F
51 |  |  |  | 54.7 µg/mL (≈ 205 µM) |  |  | Nc1ncnc2c1ncn2[C@@H]1O[C@H](CO)[C@@H](O)[C@@H]1O
52 |  | 158 mL/min/kg | 906 mL/min/kg | 41.7 µg/mL (≈ 148 µM) |  |  | O=C(NCCc1cccc2cccnc12)C1CCCCC1
53 | 0.865 | 131 mL/min/kg | 290 mL/min/kg |  |  |  | CCCc1cc(C(=O)Nc2ccc(-c3nnc(C)[nH]3)cc2)no1
54 |  | 76.2 mL/min/kg | 1140 mL/min/kg |  | 0.115 | 0.0899 | O=C(CN1CCCC(c2cccc(Cc3cccc(F)c3)n2)C1)N1CCCC1 (stereo unspecified)
55 | 0.45 | 194 mL/min/kg | 620 mL/min/kg | 47.2 µg/mL (≈ 170 µM) |  |  | COc1ccc(CNCc2cccc3ccccc23)cc1
56 | 28.5 | 50.3 mL/min/kg | 874 mL/min/kg | 59.6 µg/mL (≈ 133 µM) |  |  | Cc1nc(N)c2c(C(F)(F)F)cc(C3CCN(C(=O)Cc4ccc(F)cc4)CC3)nc2n1
57 | 9.31 | 228 mL/min/kg | 1980 mL/min/kg | 42 µg/mL (≈ 96 µM) |  |  | Cc1sc2nc(CN3CCC(C)CC3)nc(N3CCN(c4cnccn4)CC3)c2c1C
58 | 1.23 | 59.5 mL/min/kg | 1030 mL/min/kg | 29.2 µg/mL (≈ 86.4 µM) |  |  | Cc1ccc(C)c(OCCN(C)C(=O)c2ccc3c(c2)nnn3C)c1
59 | 0.447 |  |  | 0.37 µg/mL (≈ 1.07 µM) |  |  | Cc1ccc(-c2ccc(NC(=O)c3ncoc3-c3ccccc3)cc2)o1
60 | 2.09 | ≤ 4.74 mL/min/kg | 51.8 mL/min/kg | 31 µg/mL (≈ 99.7 µM) |  |  | O=C(Cc1ccc(Cl)c(Cl)c1)N1CC(n2ccnn2)C1
61 | 46.8 | 8.66 mL/min/kg | 28.4 mL/min/kg |  |  |  | CNCc1cc(N(C)C)nc(C2CCCN2C(=O)C2CN(Cc3ccc(Cl)cc3)C2)n1 (stereo unspecified)
